Measurements taken from the supplement of paper PMC10627819.

What was measured:
Test in all cases: fitness (endpoint OD595 vs no drug) (fraction); higher = more growth
B. subtilis 168 = test system: B. subtilis 168
Outline: (§1)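 Growth medium was TSB, LB Lennox or CY, and plates were kept at 37 °C. Inoculation was at OD595 0.01 in 384-well plates, at 30 µl per well or 55 µl for S. pneumoniae. OD595 was monitored every 30 min for 14 h and background-subtracted using the first reading. Fitness is the optical density on entering stationary phase divided by the robust mean of no-drug controls, with values capped at 1.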

S. aureus Newman = test system: S. aureus Newman
Outline: as §1

S. pneumoniae D39V = test system: S. pneumoniae D39V
Outline: as §1
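Also: OD595 on entry to stationary phase over no-drug wells; at most 1.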

COc1cccc2c1C(=O)c1c(O)c3c(c(O)c1C2=O)C[C@@](O)(C(=O)CO)C[C@@H]3O[C@H]1C[C@H](N)[C@H](O)[C@H](C)O1 [Doxorubicin] + CC1=C(C(=O)O)N2C(=O)[C@@H](NC(=O)[C@H](N)c3ccccc3)[C@H]2SC1 [Cephalexin]
fitness
Settings	first compound 0.25 µg/mL	first compound 0.5 µg/mL	first compound 0.625 µg/mL	first compound 1 µg/mL	first compound 1.25 µg/mL	first compound 2.5 µg/mL
B. subtilis 168, partner 0.125 µg/mL	–	–	0.917	–	0.897	0.733
B. subtilis 168, partner 0.25 µg/mL	–	–	0.964	–	0.89	0.68
B. subtilis 168, partner 0.5 µg/mL	–	–	0.969	–	0.941	0.655
S. aureus Newman, partner 0.25 µg/mL	–	–	0.771	–	0.824	0.744
S. aureus Newman, partner 0.5 µg/mL	–	–	0.844	–	0.834	0.758
S. aureus Newman, partner 1 µg/mL	–	–	0.823	–	0.861	0.83
S. pneumoniae D39V, partner 2 µg/mL	0.0496	0.0845	–	0.105	–	–
S. pneumoniae D39V, partner 4 µg/mL	0.0361	0.0467	–	0.0242	–	–

fitness, one replicate
Settings	first compound 0.25 µg/mL	first compound 0.5 µg/mL	first compound 0.625 µg/mL	first compound 1 µg/mL	first compound 1.25 µg/mL	first compound 2.5 µg/mL
B. subtilis 168, partner 1 µg/mL	–	–	≥ 1	–	0.98	0.703
S. pneumoniae D39V, partner 0.125 µg/mL	0.866	0.98	–	0.905	–	–
S. pneumoniae D39V, partner 0.25 µg/mL	0.862	0.876	–	0.861	–	–
S. pneumoniae D39V, partner 0.5 µg/mL	0.878	0.872	–	0.898	–	–

C[C@@H]1O[C@@H]1P(=O)(O)O [Fosfomycin] + CC1(C)S[C@@H]2[C@H](NC(=O)Cc3ccccc3)C(=O)N2[C@H]1C(=O)O [Penicillin G]
fitness, S. aureus Newman
Settings	first compound 0.781 µg/mL	first compound 1.562 µg/mL	first compound 3.124 µg/mL
partner 0.0195 µg/mL	0.582	0.498	0.167
partner 0.039 µg/mL	0.583	0.516	0.171
partner 0.078 µg/mL	0.54	0.508	0.153

C[C@@H]1O[C@@H]1P(=O)(O)O [Fosfomycin] + CC1=C(C(=O)O)N2C(=O)[C@@H](NC(=O)[C@H](N)c3ccccc3)[C@H]2SC1 [Cephalexin]
Settings	fitness
B. subtilis 168, first compound 1.562 µg/mL, partner 0.125 µg/mL	0.66
B. subtilis 168, first compound 1.562 µg/mL, partner 0.25 µg/mL	0.776
B. subtilis 168, first compound 1.562 µg/mL, partner 0.5 µg/mL	0.774
B. subtilis 168, first compound 3.124 µg/mL, partner 0.125 µg/mL	0.573
B. subtilis 168, first compound 3.124 µg/mL, partner 0.25 µg/mL	0.656
B. subtilis 168, first compound 3.124 µg/mL, partner 0.5 µg/mL	0.611
B. subtilis 168, first compound 6.248 µg/mL, partner 0.125 µg/mL	0.404
B. subtilis 168, first compound 6.248 µg/mL, partner 0.25 µg/mL	0.396
B. subtilis 168, first compound 6.248 µg/mL, partner 0.5 µg/mL	0.373
S. aureus Newman, first compound 0.781 µg/mL, partner 0.25 µg/mL	0.677
S. aureus Newman, first compound 0.781 µg/mL, partner 0.5 µg/mL	0.662
S. aureus Newman, first compound 0.781 µg/mL, partner 1 µg/mL	0.685
S. aureus Newman, first compound 1.562 µg/mL, partner 0.25 µg/mL	0.604
S. aureus Newman, first compound 1.562 µg/mL, partner 0.5 µg/mL	0.561
S. aureus Newman, first compound 1.562 µg/mL, partner 1 µg/mL	0.616
S. aureus Newman, first compound 3.124 µg/mL, partner 0.25 µg/mL	0.309
S. aureus Newman, first compound 3.124 µg/mL, partner 0.5 µg/mL	0.286
S. aureus Newman, first compound 3.124 µg/mL, partner 1 µg/mL	0.284
S. pneumoniae D39V, first compound 1.25 µg/mL, partner 1 µg/mL	0.768
S. pneumoniae D39V, first compound 1.25 µg/mL, partner 2 µg/mL	0.212
S. pneumoniae D39V, first compound 1.25 µg/mL, partner 4 µg/mL	0.0339
S. pneumoniae D39V, first compound 2.5 µg/mL, partner 2 µg/mL	0.191
S. pneumoniae D39V, first compound 2.5 µg/mL, partner 4 µg/mL	0.0402
S. pneumoniae D39V, first compound 5 µg/mL, partner 2 µg/mL	0.0752
S. pneumoniae D39V, first compound 5 µg/mL, partner 4 µg/mL	0.0499

fitness, one replicate
Settings	first compound 1.25 µg/mL	first compound 1.562 µg/mL	first compound 2.5 µg/mL	first compound 3.124 µg/mL	first compound 5 µg/mL	first compound 6.248 µg/mL
B. subtilis 168, partner 1 µg/mL	–	0.797	–	0.673	–	0.542
S. pneumoniae D39V, partner 0.125 µg/mL	0.937	–	0.879	–	0.713	–
S. pneumoniae D39V, partner 0.25 µg/mL	0.933	–	0.847	–	0.762	–
S. pneumoniae D39V, partner 0.5 µg/mL	0.899	–	0.847	–	0.751	–

Cc1ncc([N+](=O)[O-])n1CCO [Metronidazole] + CC1(C)S[C@@H]2[C@H](NC(=O)Cc3ccccc3)C(=O)N2[C@H]1C(=O)O [Penicillin G]
fitness, S. aureus Newman
Settings	first compound 0.625 µg/mL	first compound 0.781 µg/mL	first compound 1.25 µg/mL	first compound 1.562 µg/mL	first compound 2.5 µg/mL	first compound 3.124 µg/mL
partner 0.0195 µg/mL	0.924	0.836	0.799	0.85	0.826	0.829
partner 0.039 µg/mL	0.9	0.975	0.882	0.932	0.913	0.947
partner 0.078 µg/mL	0.812	0.982	0.858	0.959	0.807	0.946

CC1(C)S[C@@H]2[C@H](NC(=O)Cc3ccccc3)C(=O)N2[C@H]1C(=O)O [Penicillin G] + CC1=C\[C@@H](O)CC(=O)Cc2nc(co2)C(=O)N2CCC=C2C(=O)O[C@H](C(C)C)[C@H](C)/C=C/C(=O)NC\C=C\1 [Virginiamycin M1]
fitness, S. aureus Newman
Settings	first compound 0.0195 µg/mL	first compound 0.039 µg/mL	first compound 0.078 µg/mL
partner 0.0625 µg/mL	0.896	0.929	0.917
partner 0.125 µg/mL	0.935	0.924	0.955
partner 0.25 µg/mL	0.914	0.913	0.925

fitness, S. aureus Newman, one replicate
Settings	first compound 0.0195 µg/mL	first compound 0.039 µg/mL	first compound 0.078 µg/mL
partner 0.5 µg/mL	0.834	0.766	0.788
partner 1 µg/mL	0.916	0.877	0.856
partner 2 µg/mL	0.807	0.741	0.717

CC1(C)S[C@@H]2[C@H](NC(=O)Cc3ccccc3)C(=O)N2[C@H]1C(=O)O [Penicillin G] + CCCCCCCCCC(=O)N[C@@H]1[C@H]([C@@H]([C@H](O[C@H]1OC2=C3C=C4C=C2OC5=C(C=C(C=C5)[C@H]([C@H]6C(=O)N[C@@H](C7=C(C(=CC(=C7)O)OC8[C@H]([C@H]([C@@H]([C@H](O8)CO)O)O)O)C9=C(C=CC(=C9)[C@H](C(=O)N6)NC(=O)[C@@H]4NC(=O)[C@@H]1C2=CC(=CC(=C2)OC2=C(C=CC(=C2)[C@H](C(=O)N[C@H](CC2=CC(=C(O3)C=C2)Cl)C(=O)N1)N)O)O)O)C(=O)O)O[C@H]1[C@@H]([C@H]([C@@H]([C@H](O1)CO)O)O)NC(=O)C)Cl)CO)O)O [Teicoplanin]
fitness, S. aureus Newman, main component drawn
Settings	first compound 0.0195 µg/mL	first compound 0.039 µg/mL	first compound 0.078 µg/mL
partner 0.1562 µg/mL	0.983	≥ 1	≥ 1
partner 0.3125 µg/mL	0.955	0.924	0.921
partner 0.625 µg/mL	0.803	0.824	0.776

fitness, S. aureus Newman, one replicate, main component drawn
Settings	first compound 0.0195 µg/mL	first compound 0.039 µg/mL	first compound 0.078 µg/mL
partner 0.62 µg/mL	0.697	0.741	0.715
partner 1.24 µg/mL	0.702	0.732	0.711
partner 2.48 µg/mL	0.377	0.393	0.284
